Experimental data reported in ChEMBL document CHEMBL3832064, “DailyMed|setid=5eda246b-ac51-46e7-b473-35937f84ed05 | GLIMEPIRIDE - glimepiride tablet|Perrigo New York Inc”.
“And” between values parts separate entries of the source, which are not always exact repeats. Identical values can stand only once.

What was measured:
Format in all cases: ADME, organism-based
Homo sapiens [1] = species: Homo sapiens; assay: (§1) Evalaution of pharmacokinetic parameters for Glimepiride following multiple doses of Glimepiride […] to healthy subjects and to patients with type 2 diabetes; set-up: dose 4 mg, dose 8 mg, route oral; details: in vivo, po, dosed compound id 27, dosed compound name GLIMEPIRIDE, regimen Multiple dose, study dosing duration 10 days, tissue Plasma
[2] = as §1; set-up: dose 4 mg, dose 8 mg, route oral; details: human, in vivo, dosed compound id 27, dosed compound name GLIMEPIRIDE, regimen Multiple dose, study dosing duration 10 days, tissue Plasma
Homo sapiens [3] = assay: (§2) Evalaution of pharmacokinetic parameters for Glimepiride following single oral […] of Glimepiride tablets […] to healthy subjects and to patients with type 2 diabetes.; set-up: dose 4 mg, dose 1 mg, dose 2 mg, dose 8 mg, route oral; details: in vivo, po, dosed compound id 27, dosed compound name GLIMEPIRIDE, regimen Single dose, tissue Plasma
[4] = as §2; set-up: dose 4 mg, dose 1 mg, dose 2 mg, dose 8 mg, route oral; details: human, in vivo, dosed compound id 27, dosed compound name GLIMEPIRIDE, regimen Single dose, tissue Plasma
[5] = Pharmacokinetic parameters evaluated following intravenous […] of Glimepiride […] to normal subjects.; details: human, in vivo, dosed compound id 27, dosed compound name GLIMEPIRIDE, tissue Plasma
[6] = dose 1-8 mg, study dosing duration 1 day

Cmax (Homo sapiens [1]): 309 ng/mL | Cmax ([2]; po): 578 ng/mL | CL/F ([2]; dose 1-8 mg, route oral): 52.7 mL/min | Tmax ([2]; dose 1-8 mg, route oral): 2.8 h | Vd/F ([2]; dose 1-8 mg, route oral): 37.1 L | half-life ([2]; dose 1-8 mg, route oral): 9.2 h | t1/2 (Homo sapiens [3]; dose 1 mg, gender male and female): 5.3 h | CL/F (Homo sapiens [3]; [6]): 48.5 mL/min | Tmax (Homo sapiens [3]; [6]): 2.5 h | Vd/F (Homo sapiens [3]; [6]): 19.8 L | t1/2 (Homo sapiens [3]; [6]): 5 h | AUC(0-last) (Homo sapiens [3]; gender male and female): 315.2 ng·h/mL | Cmax (Homo sapiens [3]; gender male and female): 102.4 ng/mL and 103.2 ng/mL | Cmax (Homo sapiens [3]; study dosing duration 1 day): 352 ng/mL and 591 ng/mL | AUC ([4]; po, gender male and female, read-out: AUC(0-last)): 339 ng·h/mL | half-life ([4]; dose 1 mg, gender male and female, route oral): 3.1 h | CL/F ([4]; dose 1-8 mg, route oral): 52.1 mL/min | Tmax ([4]; dose 1-8 mg, route oral): 2.4 h | Vd/F ([4]; dose 1-8 mg, route oral): 21.8 L | Vd [5]: 8.8 L | clearance [5]: 47.8 mL/min
Compound: CCC1=C(C)CN(C(=O)NCCc2ccc(S(=O)(=O)NC(=O)N[C@H]3CC[C@H](C)CC3)cc2)C1=O [GLIMEPIRIDE]
